According to PubChem BioAssay AID2060500 (Molecular Pharmacology Branch, DTP, NCI, 2025):
pIC50: −log10 of the molar value.

Test system: 596521-263-R-J1-PDC complex spheroids, viability % of control
Assay: Anticancer human tumor 596521-263-R-J1-PDC patient-derived soft tissue sarcoma cell line growth inhibition [GQUAD]
Conditions: for pIC50: curve of first compound; for viability, T/C: stronger effect = lower value; active means viability on the fitted dose curve at most 10% of control; inactive means the rest
Method in brief: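 Multi-cell-type spheroids of tumor cells with HUVEC and mesenchymal stem cells, treated with drug combinations. Concentrations descend in half-log steps from near clinical Cmax, or from 10 microM where Cmax is unknown; viability read-out.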

[1] = second compound 0.0316 µM, first compound 0.0316 µM
[2] = second compound 0.0316 µM, first compound 0.1 µM
[3] = second compound 0.0316 µM, first compound 0.316 µM
[4] = second compound 0.0316 µM, first compound 1 µM
[5] = second compound 0.0316 µM, first compound 3.16 µM
[6] = second compound 0.0316 µM, first compound 10 µM
[7] = second compound 0.1 µM, first compound 0.0316 µM
[8] = second compound 0.1 µM, first compound 0.1 µM
[9] = second compound 0.1 µM, first compound 0.316 µM
[10] = second compound 0.1 µM, first compound 1 µM
[11] = second compound 0.1 µM, first compound 3.16 µM
[12] = second compound 0.1 µM, first compound 10 µM
[13] = second compound 0.316 µM, first compound 0.0316 µM
[14] = second compound 0.316 µM, first compound 0.1 µM
[15] = second compound 0.316 µM, first compound 0.316 µM
[16] = second compound 0.316 µM, first compound 1 µM
[17] = second compound 0.316 µM, first compound 3.16 µM
[18] = second compound 0.316 µM, first compound 10 µM
[19] = second compound 1 µM, first compound 0.0316 µM
[20] = second compound 1 µM, first compound 0.1 µM
[21] = second compound 1 µM, first compound 0.316 µM
[22] = second compound 1 µM, first compound 1 µM
[23] = second compound 1 µM, first compound 3.16 µM
[24] = second compound 1 µM, first compound 10 µM
[25] = second compound 3.16 µM, first compound 0.0316 µM
[26] = second compound 3.16 µM, first compound 0.1 µM
[27] = second compound 3.16 µM, first compound 0.316 µM
[28] = second compound 3.16 µM, first compound 1 µM
[29] = second compound 3.16 µM, first compound 3.16 µM
[30] = second compound 3.16 µM, first compound 10 µM
[31] = second compound 10 µM, first compound 0.0316 µM
[32] = second compound 10 µM, first compound 0.1 µM
[33] = second compound 10 µM, first compound 0.316 µM
[34] = second compound 10 µM, first compound 1 µM
[35] = second compound 10 µM, first compound 3.16 µM
[36] = second compound 10 µM, first compound 10 µM
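Further: spheroids exposed to drugs for 7 days before viability reading.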
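Wherever viability, T/C is given: 100% = DMSO vehicle control viability.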

C#Cc1c(F)ccc2cc(O)cc(-c3ncc4c(N5CC6CCC(C5)N6)nc(OCC56CCCN5CC(F)C6)nc4c3F)c12 (stereo unspecified) + Cc1cnc(CNC(=O)c2c(=O)c3ccc(N4CCCN(C)CC4)nc3n3c2sc2ccccc23)cn1
< 5.00: pIC50 (second compound 0.0316 µM) | pIC50 (second compound 0.1 µM) | pIC50 (second compound 0.316 µM) | pIC50 (second compound 1 µM) | pIC50 (second compound 3.16 µM)
inactive: viability, T/C [1] 93.2% | viability, T/C [2] 94.4% | viability, T/C [3] 101% | viability, T/C [4] 88% | viability, T/C [5] 98.5% | viability, T/C [6] 90.7% | viability, T/C [7] 92.9% | viability, T/C [8] 74.9% | viability, T/C [9] 76.7% | viability, T/C [10] 93.5% | viability, T/C [11] 90.8% | viability, T/C [12] 82.9% | viability, T/C [13] 72.5% | viability, T/C [14] 74.6% | viability, T/C [15] 70.4% | viability, T/C [16] 93.3% | viability, T/C [17] 91.8% | viability, T/C [18] 66.7% | viability, T/C [19] 60.7% | viability, T/C [20] 60.8% | viability, T/C [21] 61.4% | viability, T/C [22] 66.3% | viability, T/C [23] 67.4% | viability, T/C [24] 52.5% | viability, T/C [25] 56.4% | viability, T/C [26] 49.2% | viability, T/C [27] 49.8% | viability, T/C [28] 57% | viability, T/C [29] 50.9% | viability, T/C [30] 54% | viability, T/C [31] 36.3% | viability, T/C [32] 14.9% | viability, T/C [33] 39.6% | viability, T/C [34] 40.7% | viability, T/C [35] 36.9% | viability, T/C [36] 0.57%
> 7.50: pIC50 (second compound 10 µM)

CC(=O)O[C@H]1C(=O)[C@@]2(C)[C@H]([C@H](OC(=O)c3ccccc3)[C@]3(O)C[C@H](OC(=O)[C@H](O)[C@@H](NC(=O)c4ccccc4)c4ccccc4)C(C)=C1C3(C)C)[C@]1(OC(C)=O)CO[C@@H]1C[C@@H]2O + Cc1cnc(CNC(=O)c2c(=O)c3ccc(N4CCCN(C)CC4)nc3n3c2sc2ccccc23)cn1
active: viability, T/C [31] 7.69% | viability, T/C [32] 8.44% | viability, T/C [33] 7.94% | viability, T/C [34] 7.65% | viability, T/C [35] 0.28% | viability, T/C [36] 0.22%
inactive: viability, T/C [1] 44% | viability, T/C [2] 30.7% | viability, T/C [3] 23.5% | viability, T/C [4] 27.8% | viability, T/C [5] 25.9% | viability, T/C [6] 28% | viability, T/C [7] 43.7% | viability, T/C [8] 25.2% | viability, T/C [9] 28.9% | viability, T/C [10] 28.8% | viability, T/C [11] 29.3% | viability, T/C [12] 28.9% | viability, T/C [13] 38.5% | viability, T/C [14] 30.4% | viability, T/C [15] 25.1% | viability, T/C [16] 28.1% | viability, T/C [17] 29% | viability, T/C [18] 30.8% | viability, T/C [19] 36.5% | viability, T/C [20] 32.5% | viability, T/C [21] 28.5% | viability, T/C [22] 27.9% | viability, T/C [23] 27.7% | viability, T/C [24] 31.1% | viability, T/C [25] 35.4% | viability, T/C [26] 28.1% | viability, T/C [27] 24.5% | viability, T/C [28] 25.5% | viability, T/C [29] 27.6% | viability, T/C [30] 32.2%
> 7.50: pIC50 (second compound 0.0316 µM) | pIC50 (second compound 0.1 µM) | pIC50 (second compound 0.316 µM) | pIC50 (second compound 1 µM) | pIC50 (second compound 3.16 µM) | pIC50 (second compound 10 µM)

CCCS(=O)(=O)Nc1ccc(F)c(C(=O)c2c[nH]c3ncc(-c4ccc(Cl)cc4)cc23)c1F + Cc1cnc(CNC(=O)c2c(=O)c3ccc(N4CCCN(C)CC4)nc3n3c2sc2ccccc23)cn1
5.37: pIC50 (second compound 3.16 µM)
> 7.50: pIC50 (second compound 10 µM)
5.30: pIC50 (second compound 1 µM)
inactive: viability, T/C [1] 100% | viability, T/C [2] 90.1% | viability, T/C [3] 98.1% | viability, T/C [4] 97.5% | viability, T/C [5] 78.5% | viability, T/C [6] 44.4% | viability, T/C [7] 90.6% | viability, T/C [8] 85.5% | viability, T/C [9] 95.7% | viability, T/C [10] 79.4% | viability, T/C [11] 83.6% | viability, T/C [12] 37.5% | viability, T/C [13] 81.2% | viability, T/C [14] 84.6% | viability, T/C [15] 80.1% | viability, T/C [16] 71.7% | viability, T/C [17] 71.3% | viability, T/C [18] 39.5% | viability, T/C [19] 64.2% | viability, T/C [20] 65.8% | viability, T/C [21] 67% | viability, T/C [22] 61.5% | viability, T/C [23] 53.3% | viability, T/C [24] 43.1% | viability, T/C [25] 57% | viability, T/C [26] 50.3% | viability, T/C [27] 62.8% | viability, T/C [28] 52% | viability, T/C [29] 55.2% | viability, T/C [30] 35.8% | viability, T/C [31] 46.5% | viability, T/C [32] 27.8% | viability, T/C [33] 50.4% | viability, T/C [34] 46.1% | viability, T/C [35] 24.7%
5.13: pIC50 (second compound 0.1 µM)
5.08: pIC50 (second compound 0.0316 µM)
5.18: pIC50 (second compound 0.316 µM)
active: viability, T/C [36] 0.21%
